pKi: −log10 of the molar value. “And” between values parts separate entries of the source, which are not always exact repeats. Equal entries are not always repeated.

This assay deals with Neuronal acetylcholine receptor subunit alpha-4 (Homo sapiens, UniProt P43681).
Sequence of Neuronal acetylcholine receptor subunit alpha-4 (P43681 whole entry): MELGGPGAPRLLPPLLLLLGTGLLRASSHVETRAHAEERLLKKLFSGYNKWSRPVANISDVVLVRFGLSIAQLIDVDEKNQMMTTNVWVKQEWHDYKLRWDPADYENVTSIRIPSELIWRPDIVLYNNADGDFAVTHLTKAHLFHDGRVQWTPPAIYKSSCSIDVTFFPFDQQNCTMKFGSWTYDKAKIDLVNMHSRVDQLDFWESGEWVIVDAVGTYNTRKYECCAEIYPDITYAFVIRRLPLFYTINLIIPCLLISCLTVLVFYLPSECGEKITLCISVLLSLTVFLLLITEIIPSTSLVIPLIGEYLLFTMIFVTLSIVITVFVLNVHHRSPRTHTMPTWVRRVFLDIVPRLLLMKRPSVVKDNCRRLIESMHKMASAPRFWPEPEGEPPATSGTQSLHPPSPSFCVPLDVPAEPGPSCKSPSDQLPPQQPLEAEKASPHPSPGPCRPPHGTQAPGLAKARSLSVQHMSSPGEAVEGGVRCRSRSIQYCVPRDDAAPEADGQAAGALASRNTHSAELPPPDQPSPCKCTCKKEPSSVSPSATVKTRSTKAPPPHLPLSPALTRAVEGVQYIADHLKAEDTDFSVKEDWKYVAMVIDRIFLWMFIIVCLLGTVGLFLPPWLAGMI
A word on the pKi: it is −log10 of the Ki, conventionally taken in molar units. Low values mean a large Ki, high ones a small Ki. As for `O=c1cccc2n1C[C@H]1CNC[C@H]2C1` [(1S,9R)-7,11-diazatricyclo[7.3.1.0~2,7~]trideca-2,4-dien-6-one], the pKi is 7.77 and 8.48. Consider `Cc1cc([C@@H]2CCCN2C)on1` [ABT-418], for which the pKi is 8.77. For `COc1cc2c3cc1Oc1cc(ccc1O)C[C@H]1c4c(cc(OC)c(O)c4Oc4ccc(cc4)C[C@@H]3N(C)CC2)CC[N+]1(C)C` [CAS_57-94-3], the pKi was 6.00 and < 5.00. For `C[N+](C)(C)CCCCCC[N+](C)(C)C` [Hexamethoniumdibromide] the value was below 5.00; for `CNC1(C)C2CCC(C2)C1(C)C` (stereo unspecified) [Methyl-(2,3,3-trimethyl-bicyclo[2.2.1]hept-2-yl)-amine(Mecamylamine)], below 5.00; for `CCN1C[C@]2(COC(=O)c3ccccc3-n3c(O)cc(C)c3O)CC[C@H](OC)[C@]34C5C[C@@H]6[C@@H](OC)C[C@@](O)(C5[C@H]6OC)[C@@](O)(C13)[C@@H](OC)C24` (stereo partly drawn) [[(1S,4S,5R,6S,8R,9R,13S,16S,18S)-11-ethyl-8,9-dihydroxy-4,6,16,18-tetramethoxy-11-azahexacyclo[7.7.2.1^{2,5}.0^{1,10}.0^{3,8}.0^{13,17}]nonadecan-13-yl]methyl 2-[(3S)-3-methyl-2,5-dioxopyrrolidin-1-yl]benzoate], 5.21 and 5.80.

Source of the values: BindingDB's records for PubMed 9584223 (University of Bath, 1998).
